From article PMC7411887, “New Paracyclophanylthiazoles with Anti-Leukemia Activity: Design, Synthesis, Molecular Docking, and Mechanistic Studies” (Molecules, 2020)
Read-outs that look alike come from different tables or passages of the source.

How the values were obtained:
U251 = assay: NCI five-dose assay; assay type: cell-based; conditions: CNS Cancer U251
UO-31 = assay: NCI five-dose assay; assay type: cell-based; conditions: Renal Cancer UO-31
HOP-92 = assay: NCI five-dose assay; assay type: cell-based; conditions: Non-Small-Cell Lung Cancer HOP-92
BT-549 = assay: NCI five-dose assay; assay type: cell-based, human; conditions: Breast Cancer BT-549
HCT-116 = assay: NCI five-dose assay; assay type: cell-based; conditions: Colon Cancer HCT-116
DU-145 = assay: NCI five-dose assay; assay type: cell-based; conditions: Homo sapiens, Prostate Cancer DU-145
MDA-MB-435 = assay: NCI five-dose assay; assay type: cell-based; conditions: Homo sapiens, Melanoma MDA-MB-435
Colon Cancer subpanel = assay: NCI five-dose assay, subpanel; assay type: cell-based, human; conditions: for GI50: Homo sapiens
Experimental: (§1) The outcomes were used to form log concentration vs. percentage growth inhibition curves and three response parameters (GI50, total growth inhibition (TGI), and LC50) were calculated for each cell line (Table 2).
(§2) The criterion for selectivity of a compound depends upon the ratio obtained by dividing the full-panel MID (the average sensitivity of all cell lines toward the test agent) (μM) by the individual subpanel MIDs (μM).

Prostate Cancer subpanel = assay: NCI five-dose assay, subpanel; assay type: cell-based, human
Experimental: as §1, §2

CNS Cancer subpanel = assay: NCI five-dose assay, subpanel; assay type: cell-based, human
Experimental: as §1, §2

Ovarian Cancer subpanel = assay: NCI five-dose assay, subpanel; assay type: cell-based, human; conditions: for GI50: Homo sapiens
Experimental: as §1, §2

ACHN = assay: NCI five-dose assay; assay type: cell-based; conditions: Renal Cancer ACHN
RPMI-8226 = assay: NCI five-dose assay; assay type: cell-based; conditions: Leukemia RPMI-8226
MALME-3M = assay: NCI five-dose assay; assay type: cell-based; conditions: Homo sapiens, Melanoma MALME-3M
HCC-2998 = assay: NCI five-dose assay; assay type: cell-based; conditions: Colon Cancer HCC-2998
UACC-62 = assay: NCI five-dose assay; assay type: cell-based; conditions: Melanoma UACC-62
CAKI-1 = assay: NCI five-dose assay; assay type: cell-based; conditions: Renal Cancer CAKI-1
OVCAR-3 = assay: NCI five-dose assay
K-562 = assay: NCI five-dose assay; assay type: cell-based; conditions: Leukemia K-562
SK-MEL-2 = assay: NCI five-dose assay; assay type: cell-based; conditions: Melanoma SK-MEL-2
LOX IMVI = assay: NCI five-dose assay; assay type: cell-based; conditions: Homo sapiens, Melanoma LOX IMVI
SN12C = assay: NCI five-dose assay; assay type: cell-based; conditions: Renal Cancer SN12C
MDA-MB-468 = assay: NCI five-dose assay
OVCAR-5 = assay: NCI five-dose assay; assay type: cell-based; conditions: Ovarian Cancer OVCAR-5
SNB-75 = assay: NCI five-dose assay; assay type: cell-based; conditions: CNS Cancer SNB-75
HT29 = assay: NCI five-dose assay; assay type: cell-based; conditions: Colon Cancer HT29
HS 578T = assay: NCI five-dose assay; assay type: cell-based; conditions: Breast Cancer HS 578T
NCI-H460 = assay: NCI five-dose assay; assay type: cell-based; conditions: Non-Small-Cell Lung Cancer NCI-H460
[1] = Homo sapiens, read-out: GI50 Concentration/Cell Line
[2] = Homo sapiens, read-out: LC50 (the source's name)
[3] = read-out: GI50 Concentration/Cell Line

## COC(=O)C=C1SC(=NNC(=O)c2cc3ccc2CCc2ccc(cc2)CC3)N(c2ccccc2)C1=O [Compound 3a]
U251
  TGI Concentration/Cell Line: 4.00 µM
U251; Homo sapiens, U-251, read-out: GI50 Concentration/Cell Line
  GI50: 1.89 µM
U251; Homo sapiens, U-251, read-out: LC50 (the source's name)
  CC50: 8.47 µM
UO-31; Homo sapiens
  LC50: 6.2 µM
UO-31; [1]
  GI50: 1.53 µM
UO-31
  TGI Concentration/Cell Line: 3.08 µM
HOP-92; [1]
  GI50: 1.91 µM
HOP-92; [2]
  CC50: > 100 µM
HOP-92
  TGI Concentration/Cell Line: 9.14 µM
BT-549
  TGI Concentration/Cell Line: 5.35 µM
BT-549; [1]
  GI50: 2.22 µM
HCT-116
  TGI Concentration/Cell Line: 3.66 µM
HCT-116; Homo sapiens
  LC50: 7.51 µM
HCT-116; [1]
  GI50: 1.79 µM
DU-145
  LC50: > 100 µM
DU-145; [3]
  GI50: 5.11 µM
MDA-MB-435
  LC50 (concentration causing 50% net cell kill): > 100 µM
MDA-MB-435; [3]
  GI50: 5.44 µM
Colon Cancer subpanel; Colon Cancer subpanel
  GI50 Selectivity Ratio (MID^a: MID^b): 1.24
  TGI Selectivity Ratio (MID^c: MID^d): 5.34
Colon Cancer subpanel; Colon Cancer subpanel average
  TGI Subpanel MID^d: 3.95 µM
Colon Cancer subpanel; Colon Cancer subpanel average, read-out: GI50 Subpanel MID^b
  GI50: 1.91 µM
Colon Cancer subpanel; colon cancer subpanel, read-out: GI50 values range, subpanel
  GI50: 1.78 to 2.13 µM
Prostate Cancer subpanel; Homo sapiens, Prostate Cancer subpanel average, read-out: GI50 Subpanel MID^b
  GI50: 3.41 µM
Prostate Cancer subpanel; Prostate Cancer subpanel
  GI50 Selectivity Ratio (MID^a: MID^b): 0.69
  TGI Selectivity Ratio (MID^c: MID^d): 5.89
Prostate Cancer subpanel; Prostate Cancer subpanel average
  TGI Subpanel MID^d: 3.58 µM
CNS Cancer subpanel; CNS Cancer subpanel
  GI50 Selectivity Ratio (MID^a: MID^b): 0.88
  TGI Selectivity Ratio (MID^c: MID^d): 1.08
CNS Cancer subpanel; CNS Cancer subpanel average
  TGI Subpanel MID^d: 19.5 µM
CNS Cancer subpanel; Homo sapiens, CNS Cancer subpanel average, read-out: GI50 Subpanel MID^b
  GI50: 2.71 µM
Ovarian Cancer subpanel; Ovarian Cancer subpanel average, read-out: GI50 Subpanel MID^b
  GI50: 2.59 µM
Ovarian Cancer subpanel; ovarian cancer subpanel, read-out: GI50 values range, subpanel
  GI50: 1.66 to 3.55 µM
Ovarian Cancer subpanel; Ovarian Cancer subpanel
  GI50 Selectivity Ratio (MID^a: MID^b): 0.92
  TGI Selectivity Ratio (MID^c: MID^d): 1.14
Ovarian Cancer subpanel; Ovarian Cancer subpanel average
  TGI Subpanel MID^d: 18.5 µM
ACHN; [1]
  GI50: 1.78 µM
ACHN; [2]
  CC50: 6.08 µM
ACHN
  TGI Concentration/Cell Line: 3.29 µM
RPMI-8226; Homo sapiens
  LC50: > 100 µM
RPMI-8226; [1]
  GI50: 2.15 µM
RPMI-8226
  TGI Concentration/Cell Line: 5.69 µM
MALME-3M; [3]
  GI50: 3.27 µM
MALME-3M; read-out: LC50 (the source's name)
  CC50: > 100 µM
HCC-2998
  TGI Concentration/Cell Line: 3.45 µM
HCC-2998; Homo sapiens
  LC50: 6.68 µM
HCC-2998; [1]
  GI50: 1.78 µM
UACC-62; [1]
  GI50: 1.96 µM
UACC-62; [2]
  CC50: 9.02 µM
UACC-62
  TGI Concentration/Cell Line: 4.21 µM
CAKI-1; [1]
  GI50: 1.52 µM
CAKI-1; [2]
  CC50: 9.78 µM
CAKI-1
  TGI Concentration/Cell Line: 3.00 µM
OVCAR-3; Homo sapiens, OVCAR-3, read-out: GI50 Concentration/Cell Line
  GI50: 1.8 µM
OVCAR-3; Homo sapiens, OVCAR-3, read-out: LC50
  CC50: 7.23 µM
OVCAR-3; Ovarian Cancer OVCAR-3
  TGI Concentration/Cell Line: 3.61 µM
K-562; Homo sapiens, K562, read-out: GI50 Concentration/Cell Line
  GI50: 3.15 µM
K-562; Homo sapiens, K562, read-out: LC50 (the source's name)
  CC50: > 100 µM
K-562
  TGI Concentration/Cell Line: >100 µM
SK-MEL-2; Homo sapiens
  LC50 (concentration causing 50% net cell kill): > 100 µM
SK-MEL-2; [1]
  GI50: 2.65 µM
SK-MEL-2
  TGI Concentration/Cell Line: 7.76 µM
LOX IMVI
  LC50 (concentration killing 50% of cells): 6.75 µM
LOX IMVI; [3]
  GI50: 1.69 µM
SN12C; Homo sapiens
  LC50: > 100 µM
SN12C; [1]
  GI50: 2.27 µM
SN12C
  TGI Concentration/Cell Line: 5.94 µM
MDA-MB-468; Breast Cancer MDA-MB-468
  TGI Concentration/Cell Line: 3.74 µM
MDA-MB-468; Homo sapiens, MDA-MB-468, read-out: GI50 Concentration/Cell Line
  GI50: 1.84 µM
MDA-MB-468; Homo sapiens, MDA-MB-468, read-out: LC50
  CC50: 7.61 µM
OVCAR-5; Homo sapiens
  LC50 (50% lethal concentration): 7.68 µM
OVCAR-5; [1]
  GI50: 1.92 µM
OVCAR-5
  TGI Concentration/Cell Line: 3.84 µM
SNB-75
  TGI Concentration/Cell Line: >100 µM
SNB-75; Homo sapiens
  LC50: > 100 µM
SNB-75; [1]
  GI50: 5.44 µM
HT29
  TGI Concentration/Cell Line: 4.07 µM
HT29; Homo sapiens, HT-29
  LC50: 8.56 µM
HT29; Homo sapiens, HT-29, read-out: GI50 Concentration/Cell Line
  GI50: 1.93 µM
HS 578T
  TGI Concentration/Cell Line: >100 µM
HS 578T; [1]
  GI50: 3.49 µM
HS 578T; [2]
  CC50: > 100 µM
NCI-H460; Homo sapiens
  LC50 (50% lethal concentration): 8.82 µM
NCI-H460; [1]
  GI50: 2.08 µM
NCI-H460
  TGI Concentration/Cell Line: 4.29 µM
